Patent US7750184B2, “Vitamin D receptor modulators” (Eli Lilly and Company, priority 2003, dated 2010)

Legend:
[1] = system: rat osteocalcin promoter; test: OCN (osteocalcin) promoter assay; format: cell-based; conditions: RG-15 (ROS 17/2.8) cells, 48 hr treatment, luciferase reporter
Procedure: 3. The OCN (osteocalcin) Promoter Assay
The OCN Promoter Assay is an indicator and marker for osteoporosis. […] Preferred assay results are less than 50 nM.
(3) Materials and Method for the OCN Promoter Assay:
The activation of osteocalcin by VDR ligands was evaluated in a rat osteoblast-like cell line RG-15 (ROS 17/2.8) stably expressing rat osteocalcin promoter fused with luciferase reporter gene. […] Confluent RG-15 cells maintained in DMEM/F-12 medium (3:1) containing 5% FBS, 300 μg/ml G418 and at 37° C. under 5% CO2/95% air atmosphere were trypsinized (0.25% trypsin) and plated into white opaque 96-well cell culture plates (25000 cells/well). After 24 hr, cells (in DMEM/F-12 medium+2% FBS) were treated with various concentrations of compounds, dissolved in DMSO. The final DMSO concentration remained at 0.01% (v/v). After 48 hr treatment, the medium was removed, cells were lysed with 50 μl of lysis buffer (From Luciferase reporter assay system, Roche Diagnostics, Indianapolis, Ind.) and assayed for luciferase activity using the Luciferase Reporter Gene Assay kit from Boehringer Mannheim as per manufacturer's specifications.

[2] = system: KERtr cells; test: Keratinocyte proliferation assay; format: cell-based; conditions: Homo sapiens, 72 hr, BrdU incorporation, read-out: Kera. Prolif. IC50
Procedure: 5. The Keratinocte Proliferation Assay
This Assay is indicative for the treatment of psoriasis.
(5) The Keratinocyte Proliferation Assay:
KERtr cells (Human skin keratinocyte transformed with a retrovirus vector, obtained from ATCC) were plated in 96-well flat-bottomed plates (3000 cells/well) in 100 µl keratinocyte serum free medium supplemented with bovine pituitary extract in the absence of EGF (Life Technologies, Rockville, Md.) and incubated at 37° C. for two days. The cells were treated with various concentrations of VDR ligands (ten-fold serial dilution from 10,000 nM to 0.1 nM in triplicate), dissolved in 100 μl keratinocyte serum free medium supplemented with bovine pituitary extract in the absence of EGF and incubated at 37° C. for 72 hr. BrdU (5-bromo-2′-deoxyuridine) incorporation was analyzed as a measure of DNA replication (Cell proliferation ELISA kit, Roche Diagnostics, Indianapolis, Ind.) and absorbance was measured at 405 nm. Potency values (IC50) values were determined as the concentration (nM) of compound that elicited a half-maximal response.

[3] = target: T1, VDR (Homo sapiens, UniProt P11473); test: Caco-2 cell co-transfection assay (VDR CTF); format: cell-based; conditions: Caco-2 cells, pGal4-VDR-LBD co-transfection, luciferase reporter
T1 construct: the receptor expression vector pGal4-VDR-LBD (10 ng); expressed in transfected cells; host or cells: Caco-2 cells
T1 sequence (P11473 127-423 limits assumed): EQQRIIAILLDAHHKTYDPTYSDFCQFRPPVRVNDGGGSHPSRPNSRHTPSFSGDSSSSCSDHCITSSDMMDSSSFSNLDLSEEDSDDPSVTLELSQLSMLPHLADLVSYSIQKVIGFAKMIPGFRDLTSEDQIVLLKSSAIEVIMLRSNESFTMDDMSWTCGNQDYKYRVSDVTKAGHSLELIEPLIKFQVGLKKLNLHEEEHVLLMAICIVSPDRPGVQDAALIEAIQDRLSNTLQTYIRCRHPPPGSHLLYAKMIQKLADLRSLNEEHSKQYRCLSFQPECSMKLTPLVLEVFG
Procedure: 2. The Caco-2 Cell Co-Transfection Assay:
The Caco-2 cell assay is an indicator for the undesirable condition of hypercalcemia. This co-transfection assay is a surrogate assay for in vivo calcemic activity of VDR ligands. […] Preferred assay results are greater than 1000 nM.
(2) Materials and Method for The Caco-2 Cell Assay:
Caco-2 cells, grown in phenol red free, DMEM (Invitrogen, Carlsbad, Calif.) containing 10% charcoal-stripped FCS (Hyclone, Logan, Utah), were transfected with Fugene 6 reagent (Roche Diagnostics, Indianapolis, Ind.). Cells (5000/well) were plated 18 h before transfection in a 96 well plate. The Cells were transfected with Gal4-responsive reporter pFRLuc (150 ng, Stratagene, La Jolla Calif.) and the receptor expression vector pGal4-VDR-LBD (10 ng), along with Fugene 6 reagent (0.2 μl/well). The DNA-Fugene complex was formed by incubating the mixture for 30 min at room temperature. The cells were transfected in triplicate for 5 h, and treated with various concentrations of VDR ligands (form 0.01 nM to 10,000 nM concentration range) 18 h post-transfection. The luciferase activity was quantified using Steady-Glo reagent kit (Promega, Madison, Wis.) as per manufacturer's specifications.

[4] = Mouse hypercalcemia assay; conditions: oral gavage for 6 days, serum ionized calcium 6 hours after last dosing
Procedure: The Mouse Hypercalcemia Assay is a six day hypercalcemia test for toxicity and selectivity. Acceptable test results are levels greater than 300 μg/kg/day. Preferred assay results are levels greater than 1000 μg/day.
(4) Materials and Method for the Mouse Hypercalcemia Assay:
Weanling, virus—antibody-free, five to six weeks old female DBF mice (Harlan, Indianapolis, Ind.) are used for all the studies. Animals are allowed to acclimate to local vivarium conditions for 2 days. […] The animals then are divided into groups with 4-5 mice per group. Different doses of test compounds prepared in 10% Ethanol and 90% sesame oil are administered to mice orally via gavage for 6 days. 1α-25(OH)2D3 0.5 μg/kg/d was also given to one group of mice as the positive control. […] Raw data of group differences is assessed by analysis of variance (ANOVA) using Fisher's protected least significant difference (PLSD) where the significance level was P<0.05.

[5] = target: T2, RXR-VDR heterodimer (Homo sapiens, UniProt P11473); test: RXR-VDR heterodimerization assay (SaOS-2 cells); format: cell-based; conditions: Gal4-RXR-DEF / VP16-VDR-LBD, luciferase reporter
T2 construct: Add the Gal4-RXR-DEF and VP16-VDR-LBD; expressed in transfected cells; host or cells: SaOS-2 cells
T2 sequence (P11473 127-423 limits assumed): T1 sequence (P11473 127-423 limits assumed)
T2 sequence (P19793 201-462 partner limits assumed): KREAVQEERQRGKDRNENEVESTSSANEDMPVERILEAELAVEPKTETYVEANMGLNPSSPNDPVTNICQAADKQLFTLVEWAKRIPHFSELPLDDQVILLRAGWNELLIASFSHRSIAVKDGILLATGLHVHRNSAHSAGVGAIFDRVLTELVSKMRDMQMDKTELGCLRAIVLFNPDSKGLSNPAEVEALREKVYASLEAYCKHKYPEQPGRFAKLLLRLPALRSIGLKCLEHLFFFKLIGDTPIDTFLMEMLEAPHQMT
Text: 1. The RXR-VDR heterodimer Assay:
This assay provides the VDR activity of a test compound.
(1) Materials and Method for RXR-VDR Heterodimerization Assay:
Luciferase Assay Reagent: • Use Steady-Glo Luciferase Reagent from Promega (Cat # E2550) Consists of:
Add plain DMEM media to tubes for mixing the DNA
Add the Reporter gene pFR-LUC
Add the Gal4-RXR-DEF and VP16-VDR-LBD
Make a stock solution of the compounds in DMSO
Further dilute in D-MEM (Low Glucose—With out Phenol Red)
Read the plates after drug treatment
Add Steady-Glo Luciferase Reagent mixture/wells
Count each well using a Luminescence counter, Top Count NXT by Packard

Compound	EC50 ([1]; Rattus norvegicus, 48 h) [nM]	IC50 [2] [nM]	EC50 [3] [nM]	Mouse Hypercal [4] [µg/kg/day]	EC50 [1] [nM]	EC50 [5] [nM]
CCC(CC)(c1ccc(OS(C)(=O)=O)cc1)c1ccc(OCC(O)C(C)(C)C)c(Cl)c1 (racemic) [Ex. 43, 51, 3′-[3-chloro-4-(2-hydroxy-3,3-dimethylbutoxy)phenyl]-3′-(4-methylsulfonyloxyphenyl)pentane]	7.53	4				
CCC(CC)(c1ccc(NS(C)(=O)=O)c(C)c1)c1ccc(OCC(O)C(C)(C)C)c(C)c1 (single isomer, unassigned) [Ex. 14, 3′-[4-(2-Hydroxy-3,3-dimethylbutoxy)-3-methylphenyl]-3′-[4-(methanesulfonylamino)-3-methylphenyl]pentane]	9.77	2	89	<300		
CCC(CC)(c1ccc(OCC(O)C(C)(C)C)c(C)c1)c1ccc(N(C)S(C)(=O)=O)c(C)c1 (single isomer, unassigned) [Ex. 21, N-(4-{1-ethyl-1-[4-(2-hydroxy-3,3-dimethyl-butoxy)-3-methyl-phenyl]-propyl}-2-methyl-phenyl)-N-methyl-methanesulfonamide]		67			124	
CCC(CC)(c1ccc(OS(C)(=O)=O)cc1)c1ccc(OCC(O)C(C)(C)C)c(Cl)c1 (single isomer, unassigned) [Ex. 44, 3′-[3-chloro-4-(2-hydroxy-3,3-dimethylbutoxy)phenyl]-3′-(4-methylsulfonyloxyphenyl)pentane]			86.6		2.4	2.21
CCC(CC)(c1ccc(OC[C@@](C)(O)C(C)(C)C)c(C)c1)c1ccc(OS(=O)(=O)C(F)(F)F)c(C)c1 (stereo in doubt) [Ex. 35, trifluoro-methanesulfonic acid 4-{1-ethyl-1-[4-(2-hydroxy-2,3,3-trimethyl-butoxy)-3-methyl-phenyl]-propyl}-2-methyl-phenyl ester]	20.1		616			138
Cc1cc(C2(c3ccc(OCC(=O)C(C)(C)C)c(C)c3)CCCCC2)ccc1OCC(=O)C(C)(C)C [CC, 1-(4-{1-[4-(3,3-Dimethyl-2-oxo-butoxy)-3-methyl-phenyl]-cyclohexyl}-2-methyl-phenoxy)-3,3-dimethyl-butan-2-one, reference compound]	10000		710000	>30000		
CCC(CC)(c1ccc(OS(=O)(=O)C(F)(F)F)cc1)c1ccc(OCC(=O)C(C)(C)C)c(Cl)c1 [Ex 46, 52, 3′-[3-chloro-4-(2-Oxo-3.3-dimethylbutoxy)]-3′-(4-trifluoromethylsulfonyloxyphenyl)pentane]	217	90				
CCC(CC)(c1ccc(OC[C@H](O)C(C)(C)C)c(C)c1)c1ccc(OS(C)(=O)=O)c(C)c1 [Ex. 1, 3′-[4-(2-hydroxy-3,3-dimethylbutoxy)-3-methylphenyl]-3′-[4-(methanesulfonyloxy)-3-methylphenyl]pentane]	2.72		118			3.41
CCC(CC)(c1ccc(OCC(=O)C(C)(C)C)c(C)c1)c1ccc(OS(=O)(=O)C(F)(F)F)c(C)c1 [Ex. 5, 3′-[4-(2-oxo-3,3-dimethylbutoxy)-3-methylphenyl]-3′-[4-(trifluoromethanesulfonyloxy)-3-methylphenyl]pentane]	20.8		1590	>500		
CCC(CC)(c1ccc(OCC(O)C(C)(C)C)c(C)c1)c1ccc(OS(=O)(=O)C(F)(F)F)c(C)c1 (stereo not shown) [Ex. 6, 3′-[4-(2-hydroxy-3,3-dimethylbutoxy)-3-methylphenyl]-3′-[4-(trifluoromethanesulfonyloxy)-3-methylphenyl]pentane]	11.3		1140	300		
CCC(CC)(c1ccc(OCC(=O)C(C)(C)C)c(C)c1)c1ccc(OS(=O)(=O)CC(F)(F)F)c(C)c1 [Ex. 7]	84		331	100		
CCC(CC)(c1ccc(NS(C)(=O)=O)c(C)c1)c1ccc(OCC(=O)C(C)(C)C)c(C)c1 [Ex. 17, N-(4-{1-[4-(3,3-Dimethyl-2-oxo-butoxy)-3-methyl-phenyl]-1-ethyl-propyl}-2-methyl-phenyl)-methanesulfonamide]	3.75	2				
CCC(CC)(c1ccc(NS(=O)(=O)CC)c(C)c1)c1ccc(OCC(=O)C(C)(C)C)c(C)c1 [Ex. 23, N-(4-{1-[4-(3,3-Dimethyl-2-oxo-butoxy)-3-methyl-phenyl]-1-ethyl-propyl}-2-methyl-phenyl)-ethanesulfonamide]	0.33		6.06	500		0.817
CCc1cc(C(CC)(CC)c2ccc(OS(C)(=O)=O)cc2)ccc1OCC(=O)C(C)(C)C [Ex. 39, 3′-[4-(2-oxo-3,3-dimethylbutoxy)-3-ethylphenyl]-3′-[4-methylsulfonyloxy-phenyl]pentane]	1.79		18	<100		
CCC(CC)(c1ccc(OCC(=O)C(C)(C)C)c(C)c1)c1cc(C)c(OS(C)(=O)=O)c(C)c1 [Ex. 40, 3′-[4-(2-oxo-3,3-dimethylbutoxy)-3-methylphenyl]-3′-[3,5-dimethyl-4-methylsulfonyloxy-phenyl]pentane]	1.91		375	300		
CCC(CC)(c1ccc(OS(=O)(=O)C(F)(F)F)c(C)c1)c1ccc(OCC(=O)C(C)(C)C)c(Cl)c1 [Ex. 48, 3′-[3-chloro-4-(2-oxo-3.3-dimethylbutoxy)phenyl]-3′-[3-methyl-4-(trifluoromethylsulfonyloxy)phenyl]pentane]	54.1	13		<1000		
